One experiment deals with T1, Hsp70 (Homo sapiens, UniProt P0DMV8).
T1 construct: purchased Enzo Life science ALX-201-214-C025
Nature of the experiment: Hsp70 ATPase activity assay (ADP Hunter Plus). It is filed as biochemical. The source says:
The following materials were used for the biological evaluation: The PET-28a HSP90 expression vector was constructed. The Ni^2+-nitrilo-triacetic acid (NTA) agarose was purchased from General Electric (USA). […] Isopropyl-1-thio-d-galactopyranoside (IPTG) was purchased from Sigma (St. Lousi. MO). Antibodies of β-Actin, Hsp70, Hsp90, c-Raf, Akt, Src, Phospho-Src, ERK and Her-2 were purchased from Cell Signaling Technology (Danvers, MA). Anti-p-Akt(S473) was purchased from Signalway Antibody (Baltimore, MD). HIF-1α antibody was purchased from R&D systems. The stock solution of Hsp90 was prepared in a 20 mM Tris-Cl buffer with a pH 7.4, and concentration was fixed at 5.0 μM. […] The screened out compounds were purchased from SPECS and dissolved in DMSO (Sigma, St. Louis, MO) to make a final concentration of 10^−2 mol/L and were stored at −20°C. […] The water used in the experiments was thrice-distilled and all other materials were of analytical reagent grade.
Hsp70 ATPase activity was measured using Discover RX ADP Hunter^TM Plus Assay kit assay as descripted in the manufacturer's instructions. Breifly, Hsp70 (3 μM) was incubated with 1 mM ATP in 100 mM Tris pH 7.4 at 37°C for 3 h in the presence or absence of various concentrations of test compounds. ADP generation was measured using Varioskan multimode microplate spectrophotometer (540 nm excitation and 620 nm emission). Fluorescence intensity values measured for Hsp70 without any testing compound was assumed as 100% of enzyme activity. The background reaction rate was measured in a reaction lacking enzyme or substrate and subtracted from the experimental rates.

In the next experiment the test system is HCT116. Put plainly: Anti-proliferation MTT assay. It is filed as cell-based. The note with it: Homo sapiens, HCT-116, 48 h. On the procedure:
(§1) Cell viabilities were measured by a colorimetric assay using 3-(4, 5-dimethylthiaz-ol-2-yl)-2,5-diphenyltetrazoliumbromide (MTT, Sigma, Ltd.) as described previously. Experiments were carried out in triplicate in a parallel manner for each concentration of target compounds and the results were presented as mean ± SE. Control cells were given only culture media. After incubation for 48 h, absorbance (A) was measured at 570 nm. Survival ratio (%) was calculated using the following equation: survival ratio (%) = (Atreatment/Acontrol) × 100%.
In general terms: Tetrazolium assays rely on reduction of a dye to a coloured formazan, in cell work by metabolically active cells.

The next experiment has as its system SK-BR-3. Nature of the experiment: Anti-proliferation MTT assay. In kind it is cell-based. The note with it: Homo sapiens, SK-BR-3, 48 h. On the procedure:
as §1

The subject of a further experiment is A549. Put plainly: Anti-proliferation MTT assay. It is filed as cell-based. The note with it: Homo sapiens, A549, 48 h. On the procedure:
as §1

For another experiment, the system named is MCF-7. Nature of the experiment: Anti-proliferation MTT assay. The settings on record: Homo sapiens, MCF7, 48 h. In kind it is cell-based. On the procedure: as §1
The next experiment concerns MDA-MB-231. Put plainly: Anti-proliferation MTT assay. In kind it is cell-based. The note with it: Homo sapiens, MDA-MB-231, 48 h. On the procedure:
as §1

For the next experiment, the system named is HepG2. Put plainly: Anti-proliferation MTT assay. It is filed as cell-based. The settings on record: Homo sapiens, HepG2, 48 h. On the procedure: as §1
The target in experiment [1] is T2, Hsp90 (Homo sapiens, UniProt P07900).
T2 construct: The region encoding full-length Hsp90 was subcloned into pET28a; inferred from the pET28a vector and Ni-NTA purification; made in house; host or cells: E. coli
Nature of the experiment: ATP hydrolysis inhibition, ADP Hunter Plus (ADP fluorescence) assay. It is filed as biochemical. The note with it: by ADP fluorescence assay. On the procedure: The first and last rows of the 96-well plate contained the appropriate concentration of DMSO were used as blank control. ATP was dissolved in the assay buffer to give a stock concentration of 2.5 mM and stored at room temperature. A 10 μL aliquot of ATP solution was added to each well to give a final assay concentration of 1 mM. Before the usage, Hsp90 protein was thawed on ice and suspended in chilled assay buffer to a stock concentration of 0.45 mg/mL, and the solution was kept on ice. […] The plates were shaken for approximately 2 min and incubated for 3 h at 37°C. The Discover RX ADP Hunter^TM Plus Assay kit (Discoverx, Fremont, CA) was used following the manufacturer's instructions. ATPase reactions were carried out after 3 h at 37°C temperature in presence of different concentrations of compounds. ADP generation was measured using Varioskan multimode microplate spectrophotometer (540 nm excitation and 620 nm emission). […] The background reaction rate was measured in a reaction lacking enzyme or substrate and subtracted from the experimental rates.

Experiment [2] addresses T2, Hsp90. Put plainly: Malachite green assay of Hsp90 ATPase activity. The note with it: by malachite green assay. In kind it is biochemical. On the procedure: The region encoding full-length Hsp90 was subcloned into pET28a. Protein expression in E. coli cells were induced with 0.5 mM IPTG. Cells were harvested after 20h of growth at 16°C and then disrupted by sonication. The soluble lysate was clarified by centrifugation and applied to a Ni^2+-nitrilo-triacetic acid (NTA) agarose column in a buffer (50 mM Tris-Cl, 300 mM NaCl, 10 mM Imidazole, 10% [v/v] Glycerol, 10 mM PMSF, 10 mM DTT). Hsp90 Protein was eluted with a linear gradient of 20–1000 mM imidazole. Hsp90 was identified by SDS-PAGE, and the high concentrated fraction was dialyzed against ATPase buffer (20 mM Tris-Cl, pH 7.5; 6 mM MgCl2; 20 mM KCl) and then aliquoted, frozen in liquid nitrogen, stored at −80°C.
The test compounds were diluted from mother plates (10 mM in 100% (v/v) DMSO) into daughter plates (200 μM in 2.0% (v/v) DMSO); 5 μL of test compound solution was added to each well (equivalent to a final concentration of 40 μM) of the 96-well assay plate. The first and last rows of the 96-well plate contained the appropriate concentration of DMSO were used as blank control. ATP was dissolved in the assay buffer to give a stock concentration of 2.5 mM and stored at room temperature. A 10 μL aliquot of ATP solution was added to each well to give a final assay concentration of 1 mM. Before the usage, Hsp90 protein was thawed on ice and suspended in chilled assay buffer to a stock concentration of 0.45 mg/mL, and the solution was kept on ice. The incubation was started by adding 10 μL of the stock Hsp90 to each well (except for the background wells which received 10 μL of assay buffer), giving a final assay volume of 25 μL. The plates were shaken for approximately 2 min and incubated for 3 h at 37°C.
The assay procedures were based on the literatures [33]–[35]. […] The reagent is initially dark brown, but on standing for ∼2 h at room temperature changes to a golden yellow and is ready for use. The assay buffer was 100 mM Tris–HCl, 20 mM KCl, 6 mM MgCl2, pH 7.4.
To stop the ATPase reactions, 80 μL of the malachite green reagent was added to each well.

T1 sequence (P0DMV8 whole entry): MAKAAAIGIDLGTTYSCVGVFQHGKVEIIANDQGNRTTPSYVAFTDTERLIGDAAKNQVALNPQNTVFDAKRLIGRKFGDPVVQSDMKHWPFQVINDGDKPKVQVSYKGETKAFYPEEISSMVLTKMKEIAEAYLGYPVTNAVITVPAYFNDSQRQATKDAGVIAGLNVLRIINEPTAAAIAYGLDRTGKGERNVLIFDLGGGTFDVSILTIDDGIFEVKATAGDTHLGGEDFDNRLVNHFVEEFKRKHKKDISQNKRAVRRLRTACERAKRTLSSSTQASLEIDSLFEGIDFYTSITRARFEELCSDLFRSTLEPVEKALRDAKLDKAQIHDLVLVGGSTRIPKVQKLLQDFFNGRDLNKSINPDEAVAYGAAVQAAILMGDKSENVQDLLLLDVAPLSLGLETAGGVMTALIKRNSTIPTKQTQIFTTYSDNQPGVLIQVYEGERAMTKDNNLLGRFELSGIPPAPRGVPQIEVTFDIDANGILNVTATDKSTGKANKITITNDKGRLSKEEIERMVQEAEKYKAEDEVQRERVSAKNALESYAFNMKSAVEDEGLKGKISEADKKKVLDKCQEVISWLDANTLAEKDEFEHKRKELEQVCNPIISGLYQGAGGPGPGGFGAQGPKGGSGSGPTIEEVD

Regarding `COc1ccccc1N1CCN(CC(O)COCCOc2ccc(Br)cc2)CC1` (stereo not shown) [Compound S13], the IC50 (commonly the point on the concentration scale where inhibition reaches its midpoint) at Hsp70 (ADP Hunter Plus assay) worked out at 43.8 ± 4.38 µM; with HCT116 it was 3.63 µM; in the experiment with SK-BR-3, 3.32 µM; in the experiment with A549, 0.83 µM; in the experiment with MCF-7, 2.01 µM; in the experiment on MDA-MB-231 it was 14.6 µM. In addition, the half-inhibitory concentration (IC50) in the experiment on HepG2 was 96.6 µM; on Hsp90 [1], 2.83 µM; against Hsp90 [2] it was 3.89 ± 0.54 µM. The “selectivity HSP90 over HSP70” value at Hsp70 (ratio of IC50 HSP70 / HSP90, ADP fluorescence assay) is “over 15 times”.

Source of the values: article PMC3615092, “Identification, Design and Bio-Evaluation of Novel Hsp90 Inhibitors by Ligand-Based Virtual Screening” (PLoS ONE, 2013).
